From paper PMC5663397, “A composite docking approach for the identification and characterization of ectosteric inhibitors of cathepsin K” (PLoS ONE, 2017)
Several values for one entry are separate records, joined by “and”; a condition that tells them apart may be missing. Identical values can stand only once. Entries after “also recorded” stand apart in the source; their conditions may differ. Like-named read-outs stand apart in the source and are kept apart here.

How the values were obtained:
[1] = target: T1, CatK (Homo sapiens, UniProt P43235); assay: CatK collagenase assay (type I collagen degradation, SDS-PAGE); assay type: biochemical
T1 construct: made in house; host or cells: Pichia pastoris
T1 sequence (P43235 115-329): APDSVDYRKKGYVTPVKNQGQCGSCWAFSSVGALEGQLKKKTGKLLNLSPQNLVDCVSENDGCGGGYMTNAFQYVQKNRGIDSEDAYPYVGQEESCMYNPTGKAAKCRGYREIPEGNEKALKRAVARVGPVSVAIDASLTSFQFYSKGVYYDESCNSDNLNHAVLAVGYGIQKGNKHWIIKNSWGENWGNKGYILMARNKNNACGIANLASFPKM
Procedure: The collagenase inhibitory activities of all identified compounds were measured using a collagen degradation assay. Soluble bovine type I collagen (0.6 mg/mL) was incubated with 400 nM recombinant human CatK, in the presence or absence of 200 nM chondroitin 4-sulfate (C4-S) in 100 mM sodium acetate buffer, pH 5.5, containing 2.5 mM dithiothreitol (DTT) (Sigma-Aldrich Canada, Oakville, Ontario, Canada) and 2.5 mM ethylenediametetraacetate (EDTA) (Sigma-Aldrich). In the experiments involving detergent to minimize inhibitor aggregation, 0.001% or 0.005% Triton X-100 was added to the buffer with the inhibitor. The recombinant human CatK was expressed in Pichia pastoris and purified as previously described. Selected compounds identified by molecular docking were ordered from the National Cancer Institute through the Developmental Therapeutics Program (Rockville, MD). All compounds were dissolved in DMSO as a 20 or […] stock. […] After incubation at 28°C for 4 hours, 1 μM of E-64 was added to block the residual activity of CatK.
(§1) Digestion with MMP-1 was performed in 50 mM Tris-HCl, pH 7.4, containing 200 mM NaCl and 5 mM CaCl2 at 28°C for 4 h. Reactions were stopped by adding 25 mM EDTA as previously described. Samples were analyzed using 10% SDS-PAGE gels and stained with Coomassie. The resulting bands of α-collagen chains were quantitatively assessed using ImageJ (Version 1.5) and IC50 graphs were plotted using GraphPad Prism (GraphPad Software, Version 5.0, La Jolla California USA).

[2] = target: T1, CatK; assay: Z-Phe-Arg-MCA cleavage assay with CatK; assay type: biochemical; conditions: 100 μM inhibitor, 5 nM CatK, 5 μM substrate, pH 5.5
Procedure: The enzymatic activity of CatK was monitored by measuring the rate of release of the fluorogenic group, amino-methyl coumarin at an excitation wavelength of 380 nm and an emission wavelength of 450 nm using a Molecular Devices SpectraMax Gemini spectrofluorometer. Inhibitors were added prior to measurement of enzyme activity. The assays were performed at 25°C at a fixed enzyme concentrations (5 nM) and substrate concentration (5 μM) in 100 mM sodium acetate buffer, pH 5.5, containing 2.5 mM DTT and 2.5 mM EDTA. Z-Phe-Arg-MCA hydrolysis with trypsin was carried out in 50 mM Tris-HCl, pH 8.8 at 10 nM enzyme concentration.

[3] = target: T2, MMP-1 (Homo sapiens, UniProt P03956); assay: Collagen digestion with MMP-1; assay type: biochemical; conditions: 50 μM inhibitor, 400 nM MMP-1
T2 sequence (P03956 100-469): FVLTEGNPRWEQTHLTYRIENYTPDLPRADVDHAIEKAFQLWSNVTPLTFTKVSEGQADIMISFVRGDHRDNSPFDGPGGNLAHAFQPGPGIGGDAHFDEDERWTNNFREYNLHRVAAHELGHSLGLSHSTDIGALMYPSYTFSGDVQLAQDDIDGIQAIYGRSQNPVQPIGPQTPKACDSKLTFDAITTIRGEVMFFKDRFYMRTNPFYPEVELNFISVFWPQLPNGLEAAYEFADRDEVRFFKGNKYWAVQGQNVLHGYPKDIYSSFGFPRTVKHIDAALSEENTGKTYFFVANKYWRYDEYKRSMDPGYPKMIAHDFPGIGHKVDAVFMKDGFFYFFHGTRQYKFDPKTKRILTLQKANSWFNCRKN
Procedure: as §1

[4] = target: T2, MMP-1; assay: Gelatin degradation assay with MMP-1; assay type: biochemical; conditions: 50 μM inhibitor, 10 nM MMP-1
Procedure: Gelatin (0.6 mg/mL) degradation assays were performed in the same manner as the collagen degradation experiments with 10 nM enzyme and were incubated at 37°C for one hour at the appropriate pH values for the individual proteases (CatK, pH 5.5; MMP-1, pH 7.4; trypsin, pH 8.8).

[5] = tested on: human osteoclasts; assay: Human osteoclast bone resorption assay on bone slices; assay type: cell-based; conditions: 1 μM inhibitor, 72 h, versus untreated
Procedure: (§2) Osteoclasts were generated from mononuclear cells isolated from human bone marrow tissue (Lonza, Walkersville, MD). The bone marrow cells were centrifuged at 400 g for 5 min and the pellet was re-suspended in 10 mL α-MEM (α-Minimal Essential Media) and layered on 10 ml Ficoll-Plaque media solution. After centrifugation at 500 g for 30 min, the white interface containing the monocytes was harvested and washed twice with α-MEM. Cells were cultured in α-MEM containing 10% FBS and 25 ng/mL M-CSF for 24 hours and then cultured in 25 ng/mL RANKL and 25 ng/mL M-CSF for 7 days. Differentiated osteoclasts (100,000 cells per slice) were then seeded on each bone slice (5.5 mm diameter and 0.4 mm thickness; self-made) in the presence or absence of inhibitors and incubated for 72 hours at 5% CO2 and 37°C with the DMSO concentration at 0.1%. The inhibitor concentration range tested varied between 50 nM to 3 μM.
(§3) To compare the effects of the compounds on cell survival, the metabolic activity of osteoclasts was determined using the CellTiter-Blue Viability Assay (Promega, Madison, WI, USA). Bone slices from each condition (inhibitor-treated and control groups) were fixed in 4% formaldehyde and subsequently stained for tartrate-resistant acid phosphatase (TRAcP) activity (Acid Phosphatase, Leukocyte (TRAP) Kit; Sigma-Aldrich). Aliquots from cell culture media were used to determine the CTx-I concentration (MyBiosource ELISA kit, San Diego, CA). CTx-I is a CatK-specific C-terminal cleavage product of triple helical type I collagen. The total number of osteoclasts per bone slice was determined after TRAcP staining. Cells with ≥2 nuclei were counted as osteoclasts. After 72 h, bone slices from each condition were incubated in filtered water for cell lysis and cells were removed using a cotton stick. Subsequently the resorption cavities were stained with toluidine blue and observed by light microscopy. The number of resorption events and eroded bone surface area were determined as previously described. All light microscopic analyses were performed using a Nikon Eclipse LV100 microscope and a Nikon Eclipse Ci microscope.

[6] = tested on: human osteoclasts; assay: Osteoclast survival: CellTiter-Blue metabolic activity and osteoclast count after TRAcP staining; assay type: cell-based; conditions: compared with untreated cells
Procedure: as §2, §3

[7] = tested on: quinone oxidoreductase; design: method as in PMID 21859103; conditions: cited from earlier work

**Q.** What does the source list for CN(C)CCCNc1ccc2ncn3c4ccccc4c(=O)c1c23 [compound 3, 5-(3-(dimethylamino)propylamino)-6H-imidazo[4,5,1-de]acridin-6-one]?
**A.** IC50 ([1]; 400 nM CatK, soluble bovine type I collagen 0.6 mg/mL, pH 5.5, 28°C, 4 h, read-out: Collagenase IC50): < 20 µM and 4.9 µM and ~5 µM; IC50 ([1]; Collagenase IC50 with 0.005% Triton X-100, in the presence of detergent, 0.005% Triton X-100): 5.2 ± 1.5 µM; Collagenase IC50 with 0.005% Triton X-100 ([1]; in the presence of detergent, 0.005% Triton X-100): not significantly different; inhibition at 100 µM [2]: 5 ± 2.7%; inhibitory activity towards the collagenase activity of MMP-1 [3]: no inhibitory activity; also recorded: did not show inhibition; inhibitory activity for the gelatinase activity of MMP-1 [4]: no inhibitory activity; also recorded: did not show inhibition; Number of trenches [5]: significant reduction; also recorded: significantly reduced; percentage of eroded surface area / total eroded surface [5]: significant reduction; also recorded: significantly reduced; Metabolic activity of osteoclasts ([6]; CellTiter-Blue): no significant differences; number of osteoclasts ([6]; TRAcP staining): no significant differences; activity in an inhibitor screen of a quinone oxidoreductase [7]: active
